Test results reported in the supplement of paper PMC4862054.

Tests used:
Details in all cases: incubation time: 72 h
CAL-120 = test: normalised viability (% of control), CellTiter-Blue; higher = more viable cells (about 100 = DMSO control)
Outline: (§1)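 Breast cancer cell lines in 20 µl suspension were seeded onto 384-well plates pre-loaded with compound dissolved in 5 µl medium, then incubated 72 h. CellTiter-Blue reagent (2.5 µl) was added for 2 h at 37 °C and fluorescence read at 560/590 nm. Each plate was normalised to vehicle (100) and a positive kill control (0), with Z'-factor quality control. The value is normalised viability at one listed concentration of the series.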

BT-474 = test: as above
Outline: as §1

DU-4475 = test: as above
Outline: as §1

HCC1599 = test: as above
Outline: as §1

HCC1937 = test: as above
Outline: as §1

SK-BR-3 [1] = test: as above
Outline: as §1

CAL-85-1 = test: as above
Outline: as §1

CAL-51 = test: as above
Outline: as §1

MDA-MB-231 [2] = test: as above
Outline: as §1

Hs578T = test: as above
Outline: as §1

MDA-MB-468 [3] = test: as above
Outline: as §1

MDA-MB-436 = test: as above
Outline: as §1

HCC1143 [4] = test: as above
Outline: as §1

MFM-223 = test: as above
Outline: as §1

BT-549 = test: as above
Outline: as §1

HDQ-P1 = test: as above
Outline: as §1

CAL-148 = test: as above
Outline: as §1

MDA-MB-453 = test: as above
Outline: as §1

SK-BR-3 [5] = test: drug sensitivity score (DSS), CellTiter-Blue viability (DSS (AUC-based score)); higher = stronger viability inhibition; extreme values may be limits of the assay
Outline: (§2)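 Breast cancer cell lines (20 µl suspension) were seeded into 384-well plates holding compound in a 5- or 9-concentration series, then incubated 72 h. Viability was read with CellTiter-Blue: 2.5 µl reagent was added per well for 2 h at 37 °C, and fluorescence was read at 560/590 nm. Each plate was normalised to 0.1 % DMSO and a positive kill control. The drug sensitivity score was calculated from the area under the fitted dose-response curve.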

MDA-MB-468 [6] = test: as above
Outline: as §2

HCC1143 [7] = test: as above
Outline: as §2

MDA-MB-231 [8] = test: drug sensitivity score (DSS), CellTox Green (DSS (AUC-based score)); higher = stronger drug effect (viability inhibition or cytotoxicity); extreme values may be limits of the assay
Outline: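 Plates with 384 wells held compound at 5 concentrations in 10-fold steps over a 10,000-fold range specific to each compound. Breast cancer cell lines were added in 20 µl suspension and incubated 72 h, then read for CellTox Green and CellTiter-Glo signals, with each plate normalised to 0.1 % DMSO and a positive kill control. The drug sensitivity score is based on the area under the fitted dose-response curve.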

CO[C@H]1C[C@@H]2CC[C@@H](C)[C@@](O)(O2)C(=O)C(=O)N2CCCC[C@H]2C(=O)O[C@H]([C@H](C)C[C@@H]2CC[C@@H](OP(C)(C)=O)[C@H](OC)C2)CC(=O)[C@H](C)/C=C(\C)[C@@H](O)[C@@H](OC)C(=O)[C@H](C)C[C@H](C)/C=C/C=C/C=C/1C [Ridaforolimus]
normalised viability [%]
Details | 0.3 nM | 1 nM | 3 nM | 10 nM | 100 nM | 1000 nM
BT-474 | – | 75.5 | – | – | 63 | 61.7
BT-549 | – | 62.3 | – | – | 62.9 | 56.8
CAL-51 | 90.1 | – | 56.2 | 38.6 | – | –
CAL-85-1 | 68 | – | 57.1 | 59.5 | – | –
CAL-120 | – | 70 | – | – | 50 | 46.9
CAL-148 | 79.9 | – | 43.8 | 36.6 | – | –
DU-4475 | 100 | – | 61.7 | 57.9 | – | –
HCC1143 [4] | – | 71.5 | – | – | 56.1 | 56.8
HCC1599 | – | 105 | – | – | 98.7 | 72.5
HCC1937 | – | 52.4 | – | – | 62.5 | 69.5
HDQ-P1 | 96.2 | – | 90.1 | 74.4 | – | –
Hs578T | – | 62.9 | – | – | 57.2 | 54.3
MDA-MB-231 [2] | – | 86.4 | – | – | 81.8 | 70.4
MDA-MB-436 | – | 81.3 | – | – | 94.5 | 79
MDA-MB-453 | 85.4 | – | 30 | 24.5 | – | –
MDA-MB-468 [3] | – | 66.4 | – | – | 59.3 | 60.4
MFM-223 | – | 56.3 | – | – | 45 | 43.3
SK-BR-3 [1] | – | 79.8 | – | – | 51 | 42.4

Details | drug sensitivity score
HCC1143 [7] | 16.3
MDA-MB-231 [8] | 0.968
MDA-MB-468 [6] | 16.7
SK-BR-3 [5] | 16.8

c1ccc2c(CCNc3ccc(Nc4ccncc4)cc3)c[nH]c2c1 [Serdemetan]
normalised viability [%]
Details | 3 nM | 10 nM | 30 nM | 100 nM | 1000 nM | 10000 nM
BT-474 | – | 106 | – | – | 106 | 94.4
BT-549 | – | 95.6 | – | – | 81.5 | 26.5
CAL-51 | 118 | – | 106 | 108 | – | –
CAL-85-1 | 93.3 | – | 85.8 | 84.5 | – | –
CAL-120 | – | 88 | – | – | 91.4 | 48.1
CAL-148 | 88.9 | – | 86.1 | 96.3 | – | –
DU-4475 | 93.1 | – | 88.3 | 89.6 | – | –
HCC1143 [4] | – | 87.7 | – | – | 77.7 | 43.3
HCC1599 | – | 103 | – | – | 93.8 | 74.6
HCC1937 | – | 91.2 | – | – | 94.3 | 51.4
HDQ-P1 | 97.5 | – | 99.7 | 96.7 | – | –
Hs578T | – | 108 | – | – | 91.5 | 66.8
MDA-MB-231 [2] | – | 88.4 | – | – | 89.5 | 58.2
MDA-MB-436 | – | 96.8 | – | – | 51.4 | 43.6
MDA-MB-453 | 119 | – | 93.8 | 104 | – | –
MDA-MB-468 [3] | – | 111 | – | – | 103 | 60.9
MFM-223 | – | 83.2 | – | – | 104 | 66.4
SK-BR-3 [1] | – | 96.6 | – | – | 116 | 72.2

Details | drug sensitivity score
HCC1143 [7] | 0
MDA-MB-231 [8] | 2.18
MDA-MB-468 [6] | 0
SK-BR-3 [5] | 0

S=P(N1CC1)(N1CC1)N1CC1 [Thio-TEPA]
normalised viability [%]
Details | 30 nM | 100 nM | 300 nM | 1000 nM | 10000 nM | 100000 nM
BT-474 | – | 119 | – | – | 114 | 115
BT-549 | – | 95.2 | – | – | 119 | 116
CAL-51 | 95.4 | – | 97.1 | 97.4 | – | –
CAL-85-1 | 99.9 | – | 96.4 | 102 | – | –
CAL-120 | – | 90.7 | – | – | 86.8 | 93.7
CAL-148 | 93.8 | – | 92.7 | 105 | – | –
DU-4475 | 97.2 | – | 98.7 | 91.8 | – | –
HCC1143 [4] | – | 109 | – | – | 95.9 | 81.7
HCC1599 | – | 97.8 | – | – | 82.7 | 94.7
HCC1937 | – | 102 | – | – | 93.4 | 83.6
HDQ-P1 | 111 | – | 115 | 104 | – | –
Hs578T | – | 115 | – | – | 95.6 | 109
MDA-MB-231 [2] | – | 103 | – | – | 83.2 | 64.4
MDA-MB-436 | – | 110 | – | – | 87.7 | 123
MDA-MB-453 | 111 | – | 113 | 104 | – | –
MDA-MB-468 [3] | – | 104 | – | – | 107 | 95.3
MFM-223 | – | 105 | – | – | 106 | 104
SK-BR-3 [1] | – | 102 | – | – | 99.3 | 97.1

Details | drug sensitivity score
HCC1143 [7] | 0
MDA-MB-231 [8] | 0
MDA-MB-468 [6] | 0
SK-BR-3 [5] | 0
